Paper PMC10424179, “Disrupting Kaposi’s Sarcoma-Associated Herpesvirus (KSHV) Latent Replication with a Small Molecule Inhibitor” (Journal of Medicinal Chemistry, 2023)

Test: Caco-2 cell permeability
Format: in vitro ADME
Conditions: human, pH 7.4, Caco-2 monolayer, apical to basolateral
Protocol: The next step was an in vitro ADMET profiling of the best seven compounds so far: 9, 11, 14, 19, 20, 21, and 27. The compounds were tested for their kinetic solubility (1% DMSO in PBS, pH 7.4), lipophilicity (chromatographic Log D7.4 value), cellular permeability (using Caco-2 cells), and metabolic stability (using mouse and human liver S9 fractions) (see Table 3).
MTT Assay: Viability of HEK293 cells ~48 hours after treatment […]
Fig S4: MTT assay for compounds 11, 14, 19, 20 and 21 using HEK293 cells. Values are means of […]
Permeability of the compounds was assessed using Caco2 monolayers grown on Transwell® (3460 Costar, Corning). In brief, cells were seeded 60.000 cells/well in 12-well Transwell plates in DMEM medium supplemented with 10% FCS and 1% NEAA. Cells were grown for 7 to 9 days with medium replacement every other day until they reached a tight monolayer. Tightness was defined as transepithelial resistance (TEER) values >300 Ω/cm² (measured using an EVOM Volt-Ohmmeter, World Precision Instruments). At the day of permeability as say, the compound stock solutions in DMSO were diluted to 10µM in Krebs -Ringer-buffer (KRB, pH 7.4). Cells treated with KRB only served as control. Monolayer was washed two times with prewarmed KRB and incubated with 500 µl sample on the apical compartment. Samples from the basolateral side were drawn at t = 0, 15, 30, 60, 120, 180 and 300 min and replaced with fresh buffer. The plates were incubated for 5 h in a cell culture incubator with lateral shaking (200 rpm). TEER values were measured again at the end of the permeability test. Compound concentration was determined with HPLC-ESI-MS/MS in SRM mode and calculated for the cumulative transport. Values are means of three replicates.

In the case of COc1ccc(-c2cc(C)c(-n3cc(-c4ccc(C(=O)O)cc4)nn3)cn2)c(Cl)c1 [Compound 20], the Papp A→B at 5 h, 10 µM is reported as 10.3 ± 2.3 ×10⁻⁶ cm/s.
